Data: the NIST ThermoML archive (doi:10.1016/j.tca.2009.03.014)

What was measured:
[1] = 101.33 kPa, Liquid; for mass density: Pycnometric method; for speed of sound: Linear variable-path acoustic interferometer
[2] = xn = mol fraction of the nth substance listed; details: 308.15 K, 101 kPa, Liquid; for excess molar volume: Direct dilatometry; for speed of sound: Linear variable-path acoustic interferometer
[3] = excess molar enthalpy (molar enthalpy of mixing); xn = mol fraction of the nth substance listed; details: 308.15 K, 101 kPa, Liquid, Calvet calorimetry

O=C1CCCN1 [2-pyrrolidinone]
[1]
Details	mass density [kg/m3]	speed of sound [m/s]
298.15 K	1107.26	–
308.15 K	–	1603

O=C1CCCN1 [2-pyrrolidinone] + CC(C)O
Details	excess molar enthalpy [kcal/mol]	excess molar volume [m3/mol]	speed of sound [m/s]
[2], x1 = 0.0825	–	-9.8e-08	–
[2], x1 = 0.0835	–	–	1144.9
[2], x1 = 0.1311	–	-1.54e-07	–
[2], x1 = 0.1329	–	–	1166.9
[2], x1 = 0.1719	–	-1.97e-07	–
[2], x1 = 0.1976	–	–	1196.8
[2], x1 = 0.2365	–	-2.59e-07	–
[2], x1 = 0.2597	–	–	1225.6
[2], x1 = 0.2949	–	-3.07e-07	–
[2], x1 = 0.3244	–	–	1256
[2], x1 = 0.348	–	-3.36e-07	–
[2], x1 = 0.3815	–	–	1283.5
[2], x1 = 0.4267	–	-3.69e-07	–
[2], x1 = 0.4394	–	–	1311.6
[2], x1 = 0.4756	–	-3.81e-07	–
[2], x1 = 0.5031	–	–	1343.3
[2], x1 = 0.5682	–	–	1376.4
[2], x1 = 0.5684	–	-3.74e-07	–
[2], x1 = 0.6159	–	–	1401.1
[2], x1 = 0.6315	–	-3.51e-07	–
[2], x1 = 0.6879	–	–	1439.2
[2], x1 = 0.6921	–	-3.17e-07	–
[2], x1 = 0.7193	–	-2.98e-07	–
[2], x1 = 0.765	–	–	1479.9
[2], x1 = 0.8048	–	-2.29e-07	–
[2], x1 = 0.8223	–	–	1511.6
[2], x1 = 0.8941	–	-1.33e-07	–
[2], x1 = 0.9042	–	–	1553.8
[3], x1 = 0.0841	0.11	–	–
[3], x1 = 0.1776	0.187	–	–
[3], x1 = 0.2315	0.21	–	–
[3], x1 = 0.334	0.226	–	–
[3], x1 = 0.3758	0.227	–	–
[3], x1 = 0.4453	0.218	–	–
[3], x1 = 0.501	0.206	–	–
[3], x1 = 0.6009	0.175	–	–
[3], x1 = 0.6811	0.144	–	–
[3], x1 = 0.7151	0.129	–	–
[3], x1 = 0.7626	0.111	–	–
[3], x1 = 0.8338	0.0822	–	–
[3], x1 = 0.8794	0.0634	–	–
[3], x1 = 0.9223	0.0429	–	–

O=C1CCCN1 [2-pyrrolidinone] + CCCCO
Details	excess molar enthalpy [kcal/mol]	excess molar volume [m3/mol]	speed of sound [m/s]
[2], x1 = 0.0632	–	–	1237.1
[2], x1 = 0.0883	–	-6.5e-08	–
[2], x1 = 0.1021	–	-7.6e-08	–
[2], x1 = 0.1176	–	–	1245.9
[2], x1 = 0.186	–	–	1262.9
[2], x1 = 0.2306	–	–	1276.6
[2], x1 = 0.2423	–	-1.47e-07	–
[2], x1 = 0.3298	–	-1.72e-07	–
[2], x1 = 0.3394	–	–	1315.9
[2], x1 = 0.3954	–	–	1338.2
[2], x1 = 0.4003	–	-1.87e-07	–
[2], x1 = 0.4442	–	–	1359
[2], x1 = 0.4536	–	-1.9e-07	–
[2], x1 = 0.4825	–	–	1374.9
[2], x1 = 0.497	–	-1.92e-07	–
[2], x1 = 0.5269	–	-1.88e-07	–
[2], x1 = 0.5453	–	–	1402
[2], x1 = 0.5702	–	–	1412.4
[2], x1 = 0.5855	–	-1.83e-07	–
[2], x1 = 0.6229	–	-1.76e-07	–
[2], x1 = 0.6427	–	–	1441.1
[2], x1 = 0.7154	–	-1.53e-07	–
[2], x1 = 0.7367	–	–	1478
[2], x1 = 0.7617	–	-1.36e-07	–
[2], x1 = 0.8275	–	–	1512.6
[2], x1 = 0.8382	–	-1.02e-07	–
[2], x1 = 0.8826	–	-7.7e-08	–
[2], x1 = 0.9152	–	–	1551
[3], x1 = 0.0824	0.0833	–	–
[3], x1 = 0.1933	0.155	–	–
[3], x1 = 0.2472	0.174	–	–
[3], x1 = 0.3241	0.193	–	–
[3], x1 = 0.3748	0.195	–	–
[3], x1 = 0.4183	0.195	–	–
[3], x1 = 0.4734	0.191	–	–
[3], x1 = 0.5451	0.178	–	–
[3], x1 = 0.5725	0.17	–	–
[3], x1 = 0.6427	0.151	–	–
[3], x1 = 0.7058	0.127	–	–
[3], x1 = 0.7499	0.112	–	–
[3], x1 = 0.8571	0.0658	–	–
[3], x1 = 0.9247	0.0365	–	–

O=C1CCCN1 [2-pyrrolidinone] + CCCO
Details	excess molar enthalpy [kcal/mol]	excess molar volume [m3/mol]	speed of sound [m/s]
[2], x1 = 0.0349	–	-2.3e-08	–
[2], x1 = 0.0973	–	-6.7e-08	–
[2], x1 = 0.0982	–	–	1219.3
[2], x1 = 0.1436	–	-1e-07	–
[2], x1 = 0.158	–	–	1240.8
[2], x1 = 0.1968	–	–	1255
[2], x1 = 0.2052	–	-1.38e-07	–
[2], x1 = 0.2654	–	-1.75e-07	–
[2], x1 = 0.2958	–	–	1294.4
[2], x1 = 0.3299	–	-2.08e-07	–
[2], x1 = 0.3309	–	–	1308.9
[2], x1 = 0.3881	–	-2.27e-07	–
[2], x1 = 0.3952	–	–	1336.5
[2], x1 = 0.4485	–	–	1359.7
[2], x1 = 0.4495	–	-2.44e-07	–
[2], x1 = 0.4949	–	–	1380.7
[2], x1 = 0.521	–	–	1391.8
[2], x1 = 0.5246	–	-2.48e-07	–
[2], x1 = 0.5749	–	-2.46e-07	–
[2], x1 = 0.5951	–	–	1425.6
[2], x1 = 0.6516	–	-2.27e-07	–
[2], x1 = 0.6957	–	–	1470.7
[2], x1 = 0.7314	–	–	1485.7
[2], x1 = 0.7453	–	-1.85e-07	–
[2], x1 = 0.7968	–	–	1515.4
[2], x1 = 0.8357	–	-1.29e-07	–
[2], x1 = 0.8982	–	–	1558.4
[2], x1 = 0.9206	–	-6.5e-08	–
[3], x1 = 0.0592	0.0594	–	–
[3], x1 = 0.1085	0.0933	–	–
[3], x1 = 0.1966	0.135	–	–
[3], x1 = 0.2273	0.145	–	–
[3], x1 = 0.3287	0.161	–	–
[3], x1 = 0.3782	0.159	–	–
[3], x1 = 0.4394	0.155	–	–
[3], x1 = 0.495	0.146	–	–
[3], x1 = 0.5219	0.139	–	–
[3], x1 = 0.5951	0.125	–	–
[3], x1 = 0.6622	0.108	–	–
[3], x1 = 0.7539	0.0808	–	–
[3], x1 = 0.8065	0.068	–	–
[3], x1 = 0.8946	0.0396	–	–

O=C1CCCN1 [2-pyrrolidinone] + CCO
Details	excess molar enthalpy [kcal/mol]	excess molar volume [m3/mol]	speed of sound [m/s]
[2], x1 = 0.0767	–	-9.2e-08	–
[2], x1 = 0.0784	–	–	1172.9
[2], x1 = 0.1393	–	-1.72e-07	–
[2], x1 = 0.1607	–	–	1230.8
[2], x1 = 0.1763	–	-2.15e-07	–
[2], x1 = 0.1963	–	–	1252.8
[2], x1 = 0.2471	–	–	1282.9
[2], x1 = 0.2676	–	-3.07e-07	–
[2], x1 = 0.338	–	–	1327.2
[2], x1 = 0.3493	–	-3.68e-07	–
[2], x1 = 0.3876	–	–	1349.4
[2], x1 = 0.4016	–	-3.94e-07	–
[2], x1 = 0.4337	–	–	1366.5
[2], x1 = 0.4713	–	–	1381
[2], x1 = 0.4865	–	-4.16e-07	–
[2], x1 = 0.5347	–	–	1404.3
[2], x1 = 0.5479	–	-4.13e-07	–
[2], x1 = 0.5985	–	–	1427.8
[2], x1 = 0.6015	–	-3.94e-07	–
[2], x1 = 0.6412	–	–	1444.8
[2], x1 = 0.6573	–	-3.66e-07	–
[2], x1 = 0.7145	–	-3.21e-07	–
[2], x1 = 0.7539	–	–	1492.3
[2], x1 = 0.7982	–	-2.4e-07	–
[2], x1 = 0.8064	–	–	1518.1
[2], x1 = 0.856	–	-1.75e-07	–
[2], x1 = 0.8887	–	–	1559.4
[2], x1 = 0.92	–	-9.7e-08	–
[3], x1 = 0.0647	0.0643	–	–
[3], x1 = 0.1158	0.102	–	–
[3], x1 = 0.2075	0.14	–	–
[3], x1 = 0.2768	0.149	–	–
[3], x1 = 0.338	0.152	–	–
[3], x1 = 0.38	0.148	–	–
[3], x1 = 0.4337	0.14	–	–
[3], x1 = 0.5337	0.118	–	–
[3], x1 = 0.605	0.104	–	–
[3], x1 = 0.6856	0.0834	–	–
[3], x1 = 0.7539	0.0649	–	–
[3], x1 = 0.7929	0.0552	–	–
[3], x1 = 0.8436	0.0455	–	–
[3], x1 = 0.8904	0.0312	–	–

CCCCO [butan-1-ol]
[1]
Details	mass density [kg/m3]	speed of sound [m/s]
298.15 K	809.5	–
308.15 K	–	1232.2

CCO [ethanol]
[1]
Details	mass density [kg/m3]	speed of sound [m/s]
298.15 K	785.08	–
308.15 K	–	1112

CCCO [propan-1-ol]
[1]
Details	mass density [kg/m3]	speed of sound [m/s]
298.15 K	799.28	–
308.15 K	–	1188.2

CC(C)O [propan-2-ol]
[1], 298.15 K
Details	mass density [kg/m3]	speed of sound [m/s]
–	780.98	1135.9
